Read-outs that look alike come from different tables or passages of the source.
Assays:
[1] = type: physicochemical; settings: for Sherwood Number (Sh): calculated from initial dissolution rate coefficient; for Dissolution Rate Coeff. (kL): model-calibrated initial value
[2] = type: physicochemical; settings: for Dissolution Rate Coeff. (kL): model-calibrated initial value
[3] = 10% by weight HPCD
[4] = 1 Component - HPCD (10% by weight)
[5] = 3 Component - HPCD (10% by weight)
[6] = single-component organic liquid

Structure (SMILES) | E-Normalized Rate Coeff. (kL/E) ([1]; 3 Component - Water) [h⁻¹] | Sherwood Number (Sh) ([1]; 3 Component - Water) | Dissolution Rate Coeff. (kL) ([1]; 3 Component - Water) [h⁻¹] | E-Normalized Rate Coeff. (kL/E) ([2]; 1 Component - HPCD) [h⁻¹] | Sherwood Number (Sh) [2, 4] | Dissolution Rate Coeff. (kL) [2, 4] [h⁻¹] | E-Normalized Rate Coeff. (kL/E) ([2]; 3 Component - HPCD) [h⁻¹] | Sherwood Number (Sh) [2, 5] | Dissolution Rate Coeff. (kL) [2, 5] [h⁻¹] | 10% HPCD Enhancement Factor (E°) [3, 6] | 10% HPCD Enhancement Factor (E°) ([3]; three-component organic liquid (Tol-EB-BB)) | E-Normalized Rate Coeff. (kL/E) ([1]; 1 Component - Water) [h⁻¹]
CCCCc1ccccc1 [butylbenzene] | 15 ± 11 | 0.6 | 15 ± 11 | 16 ± 2 | 100 | 1902 ± 240 | 15 ± 4 | 82 | 1900 ± 490 |  |  | 
CCc1ccccc1 [ethylbenzene] | 17 ± 3 | 0.6 | 17 ± 3 | 17 ± 3 | 15 | 342 ± 57 | 18 ± 3 | 14 | 341 ± 57 | 20 | 19 | 
Cc1ccccc1 [toluene, Toluene] | 21 ± 4 |  | 21 ± 4 | 21 ± 6 | 6 | 161 ± 44 | 21 ± 4 | 6 | 165 ± 30 | 7.7 |  | 22 ± 5

— article PMC2867052 (Journal of contaminant hydrology, 2009)
